From publication PMC6264139, “Schiff Bases of Indoline-2,3-dione: Potential Novel Inhibitors of Mycobacterium Tuberculosis (Mtb) DNA Gyrase ^†” (Molecules, 2011)

First: O=C(N/N=C1\C(=O)N(Cc2ccccc2)c2ccc(Cl)cc21)c1ccncc1 [Compound 11, (Z)-N'-(1-Benzyl-5-chloro-2-oxoindolin-3-ylidene)isonicotinohydrazide]
Second: Cc1ccc2c(c1)/C(=N/NC(=O)c1ccncc1)C(=O)N2Cc1ccccc1 [Compound 13, (Z)-N'-(1-Benzyl-5-methyl-2-oxoindolin-3-ylidene)isonicotinohydrazide]
The melting point of the first is higher: 167 to 171 °C for the first, 159 to 162 °C for the second.

`O=C1Nc2ccc(Cl)cc2/C1=N/NC(=O)c1ccncc1` [Compound 4, (Z)-N'-(5-Chloro-2-oxoindolin-3-ylidene)isonicotinohydrazide] and `O=C1Nc2ccc(F)cc2/C1=N/NC(=O)c1ccncc1` [Compound 5, (Z)-N'-(5-Fluoro-2-oxoindolin-3-ylidene)isonicotinohydrazide] cannot be ordered by melting point: 345 to 348 °C for the first, 346 to 348 °C for the second.

First: O=C1Nc2ccc([N+](=O)[O-])cc2/C1=N/NC(=O)c1cc2ccccc2o1 [Compound 19, (Z)-N'-(5-Nitro-2-oxoindolin-3-ylidene)benzofuran-2-carbohydrazide]
Second: Cc1ccc2c(c1)/C(=N/NC(=O)c1cc3ccccc3o1)C(=O)N2 [Compound 18, (Z)-N'-(5-Methyl-2-oxoindolin-3-ylidene)benzofuran-2-carbohydrazide]
The melting point of the first is higher: 367 to 369 °C for the first, 331 to 336 °C for the second.

First: O=C1Nc2ccc(OC(F)(F)F)cc2/C1=N/NC(=O)c1ccncc1 [Compound 7, (Z)-N'-(2-Oxo-5-(trifluoromethoxy)indolin-3-ylidene)isonicotinohydrazide]
Second: Cc1ccc2c(c1)/C(=N/NC(=O)c1ccncc1)C(=O)N2 [Compound 6, (Z)-N'-(5-Methyl-2-oxoindolin-3-ylidene)isonicotinohydrazide]
The melting point of the first is lower: 262 to 265 °C for the first, 319 to 322 °C for the second.

First: O=C1Nc2ccc(F)cc2/C1=N/NC(=O)c1cc2cc([N+](=O)[O-])ccc2o1 [Compound 21, (Z)-N'-(5-Fluoro-2-oxoindolin-3-ylidene)-5-nitrobenzofuran-2-carbhydrazide]
Second: O=C1Nc2ccc(Cl)cc2/C1=N/NC(=O)c1cc2ccccc2o1 [Compound 17, (Z)-N'-(5-Chloro-2-oxoindolin-3-ylidene)benzofuran-2-carbohydrazide]
The melting point of the first is higher: 357 to 359 °C for the first, 335 to 338 °C for the second.

`O=C1/C(=N\NC(=O)C23CC4CC(CC(C4)C2)C3)c2ccccc2N1c1ccccc1` [Compound 22, (Z)-N'-(2-oxo-1-phenylindolin-3-ylidene)adamantane-1-carbohydrazide] and `O=C(N/N=C1\C(=O)N(c2ccccc2)c2ccccc21)c1ccncc1` [Compound 9, (Z)-N'-(2-Oxo-1-phenylindolin-3-ylidene)isonicotinohydrazide] cannot be ordered by melting point: 201 to 203 °C for the first, 201 to 205 °C for the second.

First: O=C1Nc2ccc(OC(F)(F)F)cc2/C1=N/NC(=O)c1ccccc1Nc1cccc(C(F)(F)F)c1 [Compound 25, (Z)-N'-(2-Oxo-5-(trifluoromethoxy)indolin-3-ylidene)-2-(3-(trifluoromethyl)phenylamino)-benzo-hydrazide]
Second: Cc1ccc2c(c1)/C(=N/NC(=O)c1ccccc1Nc1c(Cl)ccc(C)c1Cl)C(=O)N2 [Compound 24, (Z)-2-(2,6-Dichloro-3-methylphenylamino)-N'-(5-methyl-2-oxoindolin-3-ylidene)-benzohydrazide]
The melting point of the first is lower: 226 °C for the first, 283 to 287 °C for the second.

First: O=C(N/N=C1\C(=O)N(c2ccccc2)c2ccccc21)c1cc2ccccc2o1 [Compound 20, (Z)-N'-(2-Oxo-1-phenylindolin-3-ylidene)benzofuran-2-carbohydrazide]
Second: Cc1cccc(Nc2ccccc2C(=O)N/N=C2\C(=O)N(Cc3ccccc3)c3ccccc32)c1C [Compound 23, (Z)-N'-(1-Benzyl-2-oxoindolin-3-ylidene)-2-(2,3-dimethylphenylamino)benzohydrazide]
The melting point of the first is lower: 235 to 238 °C for the first, 286 to 288 °C for the second.

First: O=C1Nc2ccccc2/C1=N/NC(=O)c1ccc([N+](=O)[O-])o1 [Compound 16, (Z)-5-Nitro-N'-(2-Oxoindolin-3-ylidene)furan-2-carbohydrazide]
Second: O=C1Nc2ccccc2/C1=N/NC(=O)c1cccnc1 [Compound 14, (Z)-N'-(2-Oxoindolin-3-ylidene)nicotinohydrazide]
The melting point of the first is higher: 309 to 311 °C for the first, 254 to 256 °C for the second.

First: O=C1Nc2ccc([N+](=O)[O-])cc2/C1=N/NC(=O)c1ccncc1 [Compound 8, (Z)-N'-(5-Nitro-2-oxoindolin-3-ylidene)isonicotinohydrazide]
Second: O=C1Nc2ccc(F)cc2/C1=N/NC(=O)c1ccco1 [Compound 15, (Z)-N'-(5-Fluoro-2-oxoindolin-3-ylidene)furan-2-carbhydrazide]
The melting point of the first is higher: 350 to 353 °C for the first, 310 to 312 °C for the second.

Work on `O=C(N/N=C1\C(=O)N(Cc2ccccc2)c2ccc(F)cc21)c1ccncc1` [Compound 12, (Z)-N'-(1-Benzyl-5-fluoro-2-oxoindolin-3-ylidene)isonicotinohydrazide] yielded a melting point of 188 to 192 °C.

For `CCn1cc(C(=O)N/N=C2\C(=O)Nc3ccc(F)cc32)c(=O)c2ccc(C)nc21` [Compound 26, (Z)-1-Ethyl-N'-(5-fluoro-2-oxoindolin-3-ylidene)-7-methyl-4-oxo-1,4-dihydro-1,8-naphthyridine-3-carbohydrazide], the melting point was > 360 °C.
